Assay results as given in patent US8586550B2, “Thiazole derivatives as SGLT2 inhibitors and pharmaceutical composition comprising same” (Green Cross Corporation, priority 2010, dated 2013).

target: T1, Human SGLT2 (hSGLT2) (Homo sapiens, UniProt P31639); test: Sodium-dependent glucose transport (14C-AMG uptake) assay in CHO cells stably expressing hSGLT2; assay type: cell-based; details: CHO cells expressing hSGLT2, 14C-AMG uptake, 37° C. for 2 h; single determinations; read-out: hSGLT2 Inhibitory Activity IC50
T1 construct: expressed in transfected cells
T1 sequence (P31639 1-672): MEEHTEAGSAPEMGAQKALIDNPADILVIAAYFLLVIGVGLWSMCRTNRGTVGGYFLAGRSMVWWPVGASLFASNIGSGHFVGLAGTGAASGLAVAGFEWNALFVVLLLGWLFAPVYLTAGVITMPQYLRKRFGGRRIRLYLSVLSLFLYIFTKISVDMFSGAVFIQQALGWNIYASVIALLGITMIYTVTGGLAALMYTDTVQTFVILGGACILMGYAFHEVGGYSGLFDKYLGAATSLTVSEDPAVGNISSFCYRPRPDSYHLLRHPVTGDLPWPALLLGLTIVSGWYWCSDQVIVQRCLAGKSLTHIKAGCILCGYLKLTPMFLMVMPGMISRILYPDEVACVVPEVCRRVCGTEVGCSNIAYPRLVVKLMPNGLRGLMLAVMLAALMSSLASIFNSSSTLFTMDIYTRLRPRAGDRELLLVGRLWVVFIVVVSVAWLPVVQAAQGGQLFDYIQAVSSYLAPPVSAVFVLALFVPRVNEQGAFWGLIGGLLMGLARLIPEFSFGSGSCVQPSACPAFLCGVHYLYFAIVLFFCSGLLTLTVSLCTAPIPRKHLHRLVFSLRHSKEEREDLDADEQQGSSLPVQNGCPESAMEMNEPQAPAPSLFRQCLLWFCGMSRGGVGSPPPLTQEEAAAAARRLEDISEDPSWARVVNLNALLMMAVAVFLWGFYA
Method in brief: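 Uptake of 14C-α-methyl-D-glucopyranoside (8 μM labeled, 1 mM unlabeled, NaCl buffer pH 7.4) measured over 2 h at 37 °C with inhibitor in hSGLT2-transfected CHO cells after 10 min choline-buffer pretreatment. Radioactivity by liquid scintillation; IC50 from nonlinear regression.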

IC50 [nM]	Compound
6.08	COc1cc(Cl)c(Cc2ncc(-c3ccc(F)cc3)s2)cc1[C@@H]1O[C@H](CO)[C@@H](O)[C@H](O)[C@H]1O [Example 74, (2S,3R,4R,5S,6R)-2-(4-Chloro-5-((5-(4-fluorophenyl)thiazol-2-yl)methyl)-2-methoxyphenyl)-6-(hydroxymethyl)tetrahydro-2H-pyran-3,4,5-triol]
10.4	Cc1ccc(-c2ncc(Cc3cc([C@@H]4O[C@H](CO)[C@@H](O)[C@H](O)[C@H]4O)ccc3Cl)s2)s1 [Example 188, (2S,3R,4R,5S,6R)-2-(4-Chloro-3-((2-(5-methylthiophen-2-yl)thiazol-5-yl)methyl)phenyl)-6-(hydroxymethyl)tetrahydro-2H-pyran-3,4,5-triol]
156	Cc1ccc(S(=O)(=O)OC[C@H]2O[C@@H](c3ccc(Cl)c(Cc4ncc(-c5ccco5)s4)c3)[C@H](O)[C@@H](O)[C@@H]2O)cc1 [Example 138, ((2R,3S,4R,5R,6S)-6-(4-Chloro-3-((5-(furan-2-yl)thiazol-2-yl)methyl)phenyl)-3,4,5-trihydroxy-tetrahydro-2H-pyran-2-yl)methyl 4-methylbenzenesulfonate]
1.69	C=CCOc1cc(Cl)c(Cc2ncc(-c3cccs3)s2)cc1[C@@H]1O[C@H](CO)[C@@H](O)[C@H](O)[C@H]1O [Example 85, (2S,3R,4R,5S,6R)-2-(2-(Allyloxy)-4-chloro-5-((5-(thiophen-2-yl)thiazol-2-yl)methyl)phenyl)-6-(hydroxymethyl)tetrahydro-2H-pyran-3,4,5-triol]
131	OC[C@H]1O[C@@H](c2cc(Cc3ncc(-c4ccco4)s3)c(Cl)cc2OCCn2cncn2)[C@H](O)[C@@H](O)[C@@H]1O [Example 122, (2S,3R,4R,5S,6R)-2-(2-(2-(1H-1,2,4-Triazol-1-yl)ethoxy)-4-chloro-5-((5-(furan-2-yl)thiazol-2-yl)methyl)phenyl)-6-(hydroxymethyl)-tetrahydro-2H-pyran-3,4,5-triol]

Second part, the compound before the results:

Compound	IC50 [nM]
OC[C@H]1O[C@@H](c2ccc(F)c(Cc3ncc(-c4ccoc4)s3)c2)[C@H](O)[C@@H](O)[C@@H]1O [Example 41, (2S,3R,4R,5S,6R)-2-(4-Fluoro-3-((5-(furan-3-yl)thiazol-2-yl)methyl)phenyl)-6-(hydroxymethyl)tetrahydro-2H-pyran-3,4,5-triol]	30.5
OC[C@H]1O[C@@H](c2cc(Cc3ncc(C4CCCC4)s3)c(Cl)cc2Cl)[C@H](O)[C@@H](O)[C@@H]1O [Example 68, (2S,3R,4R,5S,6R)-2-(2,4-Dichloro-5-((5-cyclopentylthiazol-2-yl)methyl)phenyl)-6-(hydroxymethyl)tetrahydro-2H-pyran-3,4,5-triol]	33
CCSc1cnc(Cc2cc([C@@H]3O[C@H](CO)[C@@H](O)[C@H](O)[C@H]3O)ccc2Cl)s1 [Example 24, (2S,3R,4R,5S,6R)-2-(4-Chloro-3-((5-(ethylthio)thiazol-2-yl)methyl)phenyl)-6-(hydroxymethyl)-tetrahydro-2H-pyran-3,4,5-triol]	30.9
COc1cc(Cl)c(Cc2ncc(-c3ccco3)s2)cc1[C@@H]1O[C@H](CO)[C@@H](O)[C@H](O)[C@H]1O [Example 69, (2S,3R,4R,5S,6R)-2-(4-Chloro-5-((5-(furan-2-yl)thiazol-2-yl)methyl)-2-methoxyphenyl)-6-(hydroxymethyl)tetrahydro-2H-pyran-3,4,5-triol]	2.24
OC[C@H]1O[C@@H](c2ccc(C(F)(F)F)c(Cc3ncc(-c4ccccc4)s3)c2)[C@H](O)[C@@H](O)[C@@H]1O [Example 51, (2R,3S,4R,5R,6S)-2-(Hydroxymethyl)-6-(3-((5-phenylthiazol-2-yl)methyl)-4-(trifluoromethyl)phenyl)tetrahydro-2H-pyran-3,4,5-triol]	20.8
OC[C@H]1O[C@@H](c2ccc(F)c(Cc3ncc(-c4ccccc4)s3)c2)[C@H](O)[C@@H](O)[C@@H]1O [Example 44, (2S,3R,4R,5S,6R)-2-(4-Fluoro-3-((5-phenylthiazol-2-yl)methyl)phenyl)-6-(hydroxymethyl)tetralrydro-2H-pyran-3,4,5-triol]	30.8
